Assay results from ChEMBL document CHEMBL3217509, “Discovery of an HIV integrase inhibitor with an excellent resistance profile” (Medchemcomm, 2013).

How the values were obtained:
[1] = Intrinsic clearance in human liver microsomes assessed per mg of protein by LC-MS/MS analysis; format: ADME; details: read-out: CLH
[2] = system: Human immunodeficiency virus 1; experiment: Antiviral activity against HIV1 NL4-3 infected in human MT2 cells after 3 days by human JC53BL cell-based beta-galactosidase reporter gene assay; format: functional, organism-based; details: Human immunodeficiency virus 1, NL4-3, JC53BL, 72 h
[3] = Intrinsic clearance in human hepatocytes assessed assessed per million of cells by LC-MS/MS analysis; format: ADME, cell-based, Hepatocyte; details: read-out: CLH
[4] = Intrinsic clearance in human liver microsomes assessed per mg of protein by LC-MS/MS analysis in presence of UDPGA; format: ADME; details: read-out: CLH

SMILES | microsomal CLint [1] | IC50 [2] | hepatocyte CLint [3] | microsomal CLint [4]
CCOc1cc(F)ccc1Cn1ccc2c3c(ncc21)C(=O)N(O)CC3 | < 8 µL/min/mg | 4.1 nM | 23.2 µL/min/1e6 cells | 5 µL/min/mg
O=C1c2ncc3c(ccn3Cc3ccc(F)cc3OC(F)F)c2CCN1O | 15.4 µL/min/mg | 5 nM | 17 µL/min/1e6 cells | 5.8 µL/min/mg
